What was measured:
[1] = system: hSTING WT pathway (THP1 Dual KI-hSTING-R232 cells, IRF3 luciferase reporter); test: THP-1 IRF3 luciferase inhibition assay with diABZI3 as activator; type: cell-based, human
Excerpt: To validate our initial observations that CXL has extraordinary potency for a small molecule antagonist, we extended our THP-1 cell luciferase reporter experiment by using diABZI3 as an agonist and using BBCl-amidine (a previously reported STING antagonist) as an antagonist control. , Furthermore, because the results were so unprecedented, we conducted these experiments in a different laboratory (U. Mass Chan. vs Univ. So. FL) and with different individuals performing the experiments.
The cells were grown in RPMI 1640, 2 mM L-glutamine, 25 mM HEPES, 10% heat-inactivated fetal bovine serum, 100 μg/mL Normocin, and Pen-Strep (100 U/mL–100 μg/ mL). For selection, the cells were passaged with and without the addition of antibiotics (10 μg/mL Blasticidin and 100 μg/mL Zeocin) to the growth medium every other passage. […] The cells were counted in a cell counter to obtain a cell density of 1 × 10^6 cells/mL of the test media. […] QUANTI-Luc (InvivoGen) reagent was then diluted in 30 mL of water, 75 μL was added to each well, and luminescence was read immediately (PerkinElmer Envision 2105). The data were normalized to the DMSO only controls (without diABZI3 or 2′,3′-cGAMP), and percentage activation was calculated based on the diABZI3 or 2′,3′-cGAMP only control. […]

[2] = system: p-hSTING puncta in HEK293 cells; test: HEK293 immunofluorescence of p-hSTING; type: cell-based, human
Protocol: STING undergoes condensed cis-oligomerization as part of its signal transduction pathway and punctate structure formation of p-hSTING in the perinuclear region is indicative of hSTING oligomerization. We had speculated that CXL might affect hSTING oligomerization. […] HEK293 cells were treated with either 10 aM or 1 pM CXL for 1 h followed by 2 μM 2′,3′-cGAMP for 90 min. Cells treated with vehicle control for 1 h and then 2 μM of 2′,3′-cGAMP for 90 min were used as a positive control. At a 1 pM concentration of CXL, both p-hSTING and punctate structure formation were diminished.
HEK293 cells were seeded into four-chambered slides (5,000 cells/well.) 36 h later, sample 1 was first treated with vehicle control for 1 h and then transfected with 2 μM 2′,3′-cGAMP (InvivoGen) using Escort IV transfection reagent (Sigma Aldrich) for 1 h and 30 min. Samples 2 and 3 were first transfected with 10 aM and 1 pM CXL, respectively, for 1 h, followed by 2 μM 2′,3′-cGAMP for 1 h and 30 min. […] DMSO concentration was kept constant across all treatment groups. Cells were fixed with 4% paraformaldehyde for 15 min and immunostained with p-STING antibody at 4 °C overnight with light agitation. The slides were incubated with Alexa 594 rabbit secondary antibody for 1 h at RT. Subsequently, the slides were stained with Phalloidin conjugated to FITC (488) for 30 min at RT, mounted with solution containing 4′,6′-diamidino-2-phenylindole (DAPI) and imaged on a Fluorescent Microscope.

His-hSTING CTD = biological target: T1, His-hSTING CTD (Homo sapiens, UniProt Q86WV6, H232R); test: Surface plasmon resonance; type: binding; conditions: without 2′,3′-cGAMP competition; read-out: KD (SPR)
T1 construct: purchased Invivogen (USA) or Cayman Chemicals (USA)
Protocol: SPR was employed for binding measurements using the His-tagged hSTING^WT CDN domain. A GE Healthcare Biacore T200 was equipped with a Ni-NTA chip. […] The sensorgrams were analyzed using Biacore T200 Software 3.0 and steady state was measured at 4 s before injection stop, exported into Graphpad, and fit versus concentration using a one site specific binding model to calculate the apparent equilibrium dissociation constant (K D). Where appropriate, kinetics were measured using a 1:1 Langmuir binding model with R max set to local to obtain the association rate (K on), dissociation (K off)

[3] = biological target: T2, hSTING CTD (STING R232 variant) (Homo sapiens, UniProt Q86WV6, H232R); test: Microscale thermophoresis; type: binding; conditions: Log inhibitor versus response fit
T2 construct: 6X-His tagged hSTING^WT, R232 variant, CTD protein was purchased; purchased Invivogen (USA) or Cayman Chemicals (USA)
Protocol: Small molecule affinities at subpicomolar concentrations are typically difficult to determine by MST due to the inability of the detector to measure differential movement of proteins when largely disproportionate ratios of protein to ligand are involved. […] Generally, an IC50 correlates well with a K D when a small molecule competes for binding with a natural substrate for a target protein.
The resulting mixture was centrifuged at 12,000 x RPM 10 min prior to use. […] The samples were run again at 30- and 45 min. Detection of the protein was performed using the blue detection channel with excitation power set to 100% and MST set to high allowing 3 s prior to MST on to check for initial fluorescence differences, 35 s for thermophoresis, and 3 s for regeneration after MST off. Analysis was performed using M.O. Affinity Analysis Software with difference between initial fluorescence measured in the first 5 s as compared with thermophoresis at 30 s at 16 different analyte concentrations ranging from 100 μM to 100 zM and exported into Graphpad Prism v.8 using a Log inhibitor versus response for parameter fit.

[4] = system: IFN-β expression in HEK293 cells; test: HEK293 real-time qPCR for IFN-β
Protocol: IFN-β expression levels were measured using real-time qPCR.
HEK293 cells were seeded at 700,000 cells per 60 mm plate confluency and treated 36 h later.

T2 sequence (Q86WV6 153-340 H232R): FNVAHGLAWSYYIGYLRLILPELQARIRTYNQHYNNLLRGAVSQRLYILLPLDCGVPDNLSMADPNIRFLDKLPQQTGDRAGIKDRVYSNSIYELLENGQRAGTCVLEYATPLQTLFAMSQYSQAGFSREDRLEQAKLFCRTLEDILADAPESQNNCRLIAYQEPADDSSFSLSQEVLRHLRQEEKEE
T1 sequence (Q86WV6 153-340 H232R): as above

Kd (His-hSTING CTD): 430 ± 140 nM
Hillslope (MST fit) [3]: −1.669
SMILES: Cc1c(Cl)cccc1Nc1ncccc1C(=O)OCC(O)CO (stereo not drawn) [CXL, clonixeril]
Response to diABZI3 with CXL 100 nM to 100 aM ([1]; 50 nM diABZI3): inverse dose response
Effect of higher concentrations of CXL on diABZI3 signal ([1]; 50 nM diABZI3, Figure 2C): enhancement of the diABZI3 signal
p-hSTING and punctate structure formation ([2]; 1 pM CXL 1 h, then 2 μM 2′,3′-cGAMP 90 min): diminished
2′,3′-cGAMP induced p-hSTING puncta formation in the perinuclear region ([2]; 10 aM CXL): may affect
Levels of hSTING phosphorylation ([2]; 10 aM CXL): qualitatively unaffected
Inhibition of IFN-b production ([4]; 1 fM, reviewer's reading of Figure 3D): about 75%
Diminution of 2′,3′-cGAMP-induced expression of IFN-β ([4]; all CXL treatment groups 1 fM-1 nM, 1 h before 4 μM 2′,3′-cGAMP): more than 50%

Source: publication PMC12203428, “Discovery of Clonixeril as a Sub-Femtomolar Modulator of the Human STING Receptor” (ACS Central Science, 2025)
